Assay results from the supplement of paper PMC10307832.

Key:
Assay in all cases: relative viability (nuclei count vs DMSO), 5 days (fraction); higher = more cells survive
[1] = compound: COc1cc2ncn(-c3cc(OCc4ccccc4C(F)(F)F)c(C(N)=O)s3)c2cc1OC + C[C@]1(O)C[C@@H](c2nc(-c3ccc4ccc(-c5ccccc5)nc4c3)c3c(N)nccn32)C1 [Linsitinib] (partner 1 µM)
Outline: (§1)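 Nuclei were stained with Hoechst during a one-step fixation (final 0.05% Triton X-100, 1% formaldehyde, 1 ug/ml Hoechst) carried out 5 days after dosing, then counted on 4× images. The cells, lung cancer lines in 1536-well plates, had been dosed by pin tool the day after seeding with one drug alone or a fixed anchor-drug dose plus five library-drug doses (not always all listed) in √10 steps. Relative viability is the nuclei count in treated wells divided by that in vehicle wells, and each value is the median of duplicate plates.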

[2] = compound: COc1cc2ncn(-c3cc(OCc4ccccc4C(F)(F)F)c(C(N)=O)s3)c2cc1OC + CCNC(=O)c1noc(-c2cc(C(C)C)c(O)cc2O)c1-c1ccc(CN2CCOCC2)cc1 [Luminespib] (partner 0.01 µM)
Outline: as §1

[3] = compound: COc1cc2ncn(-c3cc(OCc4ccccc4C(F)(F)F)c(C(N)=O)s3)c2cc1OC + COc1cc2c(Oc3ccc(NC(=O)C4(C(=O)Nc5ccc(F)cc5)CC4)cc3F)ccnc2cc1OCCCN1CCOCC1 [Foretinib] (partner 0.25 µM)
Outline: as §1

[4] = compound: COc1cc2ncn(-c3cc(OCc4ccccc4C(F)(F)F)c(C(N)=O)s3)c2cc1OC + CC1(C)CCC(c2ccc(Cl)cc2)=C(CN2CCN(c3ccc(C(=O)NS(=O)(=O)c4ccc(N[C@H](CCN5CCOCC5)CSc5ccccc5)c(S(=O)(=O)C(F)(F)F)c4)cc3)CC2)C1 [Navitoclax] (partner 0.5 µM)
Outline: as §1

Cell Line	relative viability ([1]; first compound 0.05 µM)	relative viability ([1]; first compound 0.1581 µM)	relative viability ([1]; first compound 0.5 µM)	relative viability ([1]; first compound 1.581 µM)	relative viability ([1]; first compound 5 µM)	relative viability ([2]; first compound 0.05 µM)	relative viability ([2]; first compound 0.1581 µM)	relative viability ([2]; first compound 0.5 µM)	relative viability ([2]; first compound 1.581 µM)	relative viability ([2]; first compound 5 µM)	relative viability ([3]; first compound 0.05 µM)	relative viability ([3]; first compound 0.1581 µM)	relative viability ([3]; first compound 0.5 µM)	relative viability ([3]; first compound 1.581 µM)	relative viability ([3]; first compound 5 µM)	relative viability ([4]; first compound 0.05 µM)	relative viability ([4]; first compound 0.1581 µM)	relative viability ([4]; first compound 0.5 µM)	relative viability ([4]; first compound 1.581 µM)	relative viability ([4]; first compound 5 µM)
201T	1.05	0.983	0.971	0.46	0.262	1.07	1.08	1	0.689	0.28	1.06	1.09	1.07	0.414	0.165	1.26	1.2	1.19	0.902	0.326
A549	0.63	0.714	0.386	0.0698	0.29	–	–	–	–	–	0.979	1.03	0.423	0.0316	0.0318	1.25	1.19	0.294	0.0413	0.0332
A-427	1.14	1.15	1.03	0.566	0.179	0.998	0.973	0.617	0.246	0.114	1.13	0.923	0.81	0.398	0.137	1.06	0.991	0.79	0.331	0.173
ABC-1	0.862	0.874	0.582	0.302	0.218	0.709	0.679	0.255	0.311	0.263	1.2	1.08	0.758	0.225	0.239	–	–	–	–	–
BEN	0.931	0.875	0.648	0.235	0.297	0.398	0.522	0.227	0.21	0.214	0.559	0.557	0.623	0.271	0.307	0.0682	0.0597	0.0733	0.0523	0.0519
CAL-12T	0.775	0.746	0.423	0.246	0.228	0.858	0.44	0.446	0.217	0.102	0.981	0.974	0.907	0.193	0.216	1.09	1.11	0.573	0.231	0.148
COR-L23	0.887	0.761	0.332	0.0808	0.1	0.363	0.604	0.249	0.104	0.0965	0.94	1.04	0.663	0.158	0.118	1	0.897	0.38	0.0788	0.091
COR-L 105	1.13	0.935	0.713	0.42	0.306	0.828	0.846	0.616	0.312	0.245	1.2	1.2	1.17	0.391	0.302	0.837	0.779	0.509	0.259	0.24
Calu-6	0.976	0.843	0.257	0.0961	0.0852	–	–	–	–	–	0.791	0.612	0.203	0.0691	0.0725	0.693	0.513	0.136	0.0798	0.0903
ChaGo-K-1	–	–	–	–	–	0.617	0.516	0.285	0.18	0.14	0.915	0.89	0.71	0.266	0.172	0.964	0.535	0.939	0.378	0.273
EKVX	1.06	1.07	0.858	0.214	0.42	1	1.01	0.64	–	0.578	0.779	0.516	0.603	–	0.46	0.96	0.814	0.91	0.35	0.486
EMC-BAC-2	0.906	0.843	0.696	0.509	0.164	1.19	1.22	0.931	0.569	0.219	1.11	1.01	0.815	0.309	0.212	1.2	1.14	1.07	0.766	0.178
EPLC-272H	1.12	1.15	0.533	0.11	0.11	–	0.31	0.115	0.111	0.153	–	0.338	0.102	0.102	0.104	1.12	0.982	0.255	0.0998	0.0968
H3255	0.858	0.962	0.533	0.248	0.228	0.861	0.924	0.757	–	0.518	0.876	1.06	0.714	–	0.542	0.558	0.314	0.363	0.125	0.101
HARA	0.958	0.842	0.834	0.208	0.0806	0.951	0.654	0.238	0.0482	0.0507	1.03	0.886	0.734	0.11	0.0673	1.18	1.06	0.531	0.26	0.0692
HCC-15	0.865	0.828	0.557	0.14	0.13	0.312	0.291	0.149	0.101	0.0855	0.98	0.919	0.334	0.16	0.124	0.695	0.641	0.316	0.104	0.0943
HCC-44	0.773	0.621	0.55	0.141	0.109	0.854	1.13	0.613	0.168	0.132	–	–	–	–	–	1	0.913	0.187	0.121	0.0869
HCC-78	0.537	0.597	0.368	0.315	0.394	–	–	–	–	–	0.574	0.585	0.469	0.327	0.379	0.752	0.773	0.498	0.51	0.63
HCC-366	0.837	0.635	0.114	0.0118	0.0055	–	–	–	–	–	0.962	0.938	0.282	0.0269	0.0243	1.03	1.03	0.313	0.0106	0.0086

Cell Line	relative viability ([1]; first compound 0.05 µM)	relative viability ([1]; first compound 0.1581 µM)	relative viability ([1]; first compound 0.5 µM)	relative viability ([1]; first compound 1.581 µM)	relative viability ([1]; first compound 5 µM)	relative viability ([2]; first compound 0.05 µM)	relative viability ([2]; first compound 0.1581 µM)	relative viability ([2]; first compound 0.5 µM)	relative viability ([2]; first compound 1.581 µM)	relative viability ([2]; first compound 5 µM)	relative viability ([3]; first compound 0.05 µM)	relative viability ([3]; first compound 0.1581 µM)	relative viability ([3]; first compound 0.5 µM)	relative viability ([3]; first compound 1.581 µM)	relative viability ([3]; first compound 5 µM)	relative viability ([4]; first compound 0.05 µM)	relative viability ([4]; first compound 0.1581 µM)	relative viability ([4]; first compound 0.5 µM)	relative viability ([4]; first compound 1.581 µM)	relative viability ([4]; first compound 5 µM)
HCC-827	0.968	0.924	0.798	0.401	0.27	0.335	0.683	0.372	0.194	0.161	1.04	0.987	0.718	0.277	0.213	0.988	0.99	0.874	0.287	0.201
HOP-62	0.95	0.966	0.547	0.116	0.0914	0.966	0.638	0.708	0.176	0.123	1.16	1	1.03	0.295	0.139	0.92	0.984	0.843	0.232	0.814
IA-LM	0.58	0.606	0.172	0.0675	0.0619	–	–	–	–	–	1.16	0.987	0.328	0.0521	0.0505	0.89	0.411	0.0188	0.0121	0.0246
LC-2-ad	0.722	0.685	0.119	0.106	0.0972	0.759	0.857	0.515	0.293	0.29	0.916	0.946	0.506	0.286	0.303	0.359	0.209	0.0767	0.0906	0.0667
LCLC-97TM1	0.203	0.182	0.122	0.141	0.115	0.757	0.719	0.415	0.167	0.197	0.914	0.896	0.646	0.184	0.147	0.4	0.502	0.307	0.141	0.0841
LCLC-103H	1.21	1.09	0.841	0.53	0.344	0.771	0.927	0.594	0.273	0.151	0.646	0.831	0.537	0.199	0.131	–	–	–	–	–
LK-2	0.591	0.413	0.284	0.182	0.165	0.194	0.204	0.157	0.152	0.173	1.27	0.987	0.266	0.163	0.135	0.867	0.732	0.266	0.117	0.133
LOU-NH91	0.94	1.05	0.824	0.526	0.595	0.358	0.385	0.308	0.278	0.301	0.933	0.978	0.754	0.423	0.713	0.715	0.816	0.592	0.445	0.399
NCI-H358	0.693	0.678	0.349	0.155	0.141	0.26	0.378	0.29	0.102	0.13	0.724	0.71	0.484	0.0999	0.0726	–	–	–	–	–
NCI-H522	–	–	–	–	–	1.1	0.899	1.16	0.787	0.737	–	–	–	–	–	–	–	–	–	–
NCI-H650	0.896	1.17	0.505	0.118	0.171	0.748	0.759	0.632	0.118	0.37	0.995	1.08	0.779	0.348	0.637	–	–	–	–	–
NCI-H661	0.513	0.526	0.39	0.247	0.174	0.812	0.872	0.528	0.255	0.212	0.908	0.866	0.854	0.322	0.27	–	–	–	–	–
NCI-H1299	0.984	1.12	0.636	0.245	0.253	–	–	–	–	–	1.1	1.07	0.664	0.255	0.257	1.06	1.09	0.833	0.232	0.238
NCI-H1563	1.22	1.18	1.22	1.21	0.799	0.587	0.501	0.513	0.474	0.4	0.839	0.897	1.28	0.767	0.567	–	–	–	–	–
NCI-H1650	–	–	–	–	–	0.187	0.187	0.193	0.19	0.185	1.04	1.01	1.08	0.13	0.139	1.29	1.2	0.471	0.153	0.121
NCI-H1703	0.721	0.992	0.205	0.143	0.078	–	–	–	–	–	0.308	–	0.303	–	0.15	1.38	1.28	0.509	0.124	0.0953
NCI-H1792	0.517	0.531	0.301	0.216	0.148	0.509	0.397	0.339	0.208	0.185	–	–	–	–	–	0.633	0.627	0.604	0.188	0.13
NCI-H2170	–	–	–	–	–	0.4	0.845	0.415	0.189	0.177	0.942	0.985	0.468	0.269	0.202	0.539	0.492	0.202	0.168	0.162
NCI-H2342	–	–	–	–	–	0.757	0.752	0.715	0.597	0.545	1.13	0.951	0.876	0.475	0.567	–	–	–	–	–
